Results: BindingDB's records for patent US10723705 (Incyte, 2020)

Biological target: T1, Histone deacetylase 8 (Homo sapiens, UniProt Q9BY41)
T1 sequence (Q9BY41 whole entry): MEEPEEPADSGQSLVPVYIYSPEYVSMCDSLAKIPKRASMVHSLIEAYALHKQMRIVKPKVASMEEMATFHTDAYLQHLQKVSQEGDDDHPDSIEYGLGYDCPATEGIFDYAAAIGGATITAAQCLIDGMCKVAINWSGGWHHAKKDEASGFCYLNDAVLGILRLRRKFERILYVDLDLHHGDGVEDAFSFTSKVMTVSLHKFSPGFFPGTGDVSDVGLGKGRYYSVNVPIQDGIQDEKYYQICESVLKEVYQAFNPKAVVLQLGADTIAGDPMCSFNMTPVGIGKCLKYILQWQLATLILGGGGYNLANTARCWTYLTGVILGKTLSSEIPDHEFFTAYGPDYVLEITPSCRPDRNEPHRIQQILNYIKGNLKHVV
Assay: Enzymatic Assay
Method: HDAC-Glo I/II Assay Kit was purchased from Promega Corporation (Madison, Wis.), including the following components: HDAC-Glo I/II Buffer (25 mM Tris buffer, pH 8.0, supplemented with 137 mM: NaCl, 2.7 mM KCl, 1% v/v Triton X-100 and 1 mM: MgCl2), luminogenic substrates Boc-GAK(Ac)-aminoluciferin (HDAC-Glo I/II substrate), proprietary developer reagent (containing trypsin). Assay:The HDAC8 reaction was performed at room temperature in white 384-well polystyrene, flat-bottom microtiter plate (Greiner Bio-one, Monroe, N.C.) in a final volume of 20 μL. Test compounds were first diluted serially in DMSO and 100 nL were transferred to the plate wells by Echo 550 (Labcyte, Sunnyvale, Calif.) before the addition of other reaction components. The final concentration of DMSO in the assay was 0.5%. The HDAC-Glo I/II assay reagent was prepared by rehydration of lyophilized HDAC-Glo I/II substrate in 10 mL. HDAC-Glo I/II assay buffer followed with the addition of 10 μL of developer reagent. 10 uL of 3 nM HDAC8 in the HDAC-Glo I/II assay buffer were first dispensed into the microliter plate containing the compounds and incubated at room temperature for 30 min. The reactions were initiated with the addition of 10 uL HDAC-Glo I/II assay reagent with Multidrop.

IC50 | SMILES
in the range around 375 nM | O=C(NO)C(Cc1ccccc1)N1N=CC2C(Cl)=NC=CC21 (stereo not drawn) [US10723705, No. I-0055]
in the range around 375 nM | O=C(NO)C(Cc1ccccc1)N1C=CC2C=C(Cl)C=NC21 (stereo not drawn) [US10723705, No. I-0195]
in the range around 375 nM | O=C(NO)C(Cc1ccccc1)N1C=CC2C(Cl)=NC=CC21 (stereo not drawn) [US10723705, No. I-0196]
